The values that follow come from publication PMC6240096, “A hPSC-based platform to discover gene-environment interactions that impact human β-cell and dopamine neuron survival” (Nature Communications, 2018).

The subject of one data set is GSTT1+/+ INS+ cells. Put plainly: Inhibition curve on INS+ cells derived from GSTT1+/+ H1 hESCs. The class given is cell-based, human. The following applies: H1 hESC-derived, n = 3; read-out: IC50 of GSTT1+/+-1 INS+ cells. The method, then:
hESCs-derived INS^+ cells, MSCs[43], neurons, and hepatocytes[44] were derived based on the reported protocols and re-plated on 96-well plates with Accutase digestion. Cardiomyocytes (CMs) were differentiated from H9-MYH6: mCherry reporter line, based on the reported protocol. After overnight incubation, cells were treated with DMSO or different doses of hit compounds for 4 days. After fixation, the cells were stained with markers for each cell type. DAPI was used to stain cell nuclei. Plates were analyzed by ImageXpress^MICRO Automated High-Content Analysis System.
CRISPR sgRNA sequences were designed using the web resources available at http://www.genome-engineering.org/. The target sequences are listed in Supplementary Table 2. Each target sequence was cloned into the pX330-U6-Chimeric_BB-CBh-hSpCas9 vector (Addgene plasmid #42230) to make the gene targeting constructs. To knockout the target genes, two sgRNAs were validated using the surveyor assay in 293T cells, and we chose 1 sgRNA-construct plasmid for further experiments. After validation, H1 or INS^GFP/W HES3 cells were dissociated using Accutase (STEM CELL) and electroporated (8 × 10^5 cells per sample) with 4 μg sgRNA-construct plasmids using Human Stem Cell Nucleofector^TM solution (Lonza) following manufacturer’s instructions. […] A portion of the cells was analyzed by DNA sequencing. […]

The test system of another data set is mouse pancreatic β-cells. Put plainly: CD-1 mice treated by intraperitoneal injection for 5 days. The class given is in vivo. The method, then: All animal work has been approved by IACUC committee of Weill Cornell Medical College. CD-1 adult male mice were treated with different doses of propargite or vehicle (corn oil) through intraperitoneal injection for 5 days. Fasting blood glucose level were monitored every day using Abbott FreeStyle Lite blood glucose monitoring system. Then, CD-1 adult male mice were treated with 12 mg/kg propargite or vehicle (corn oil) through intraperitoneal injection for 5 days. Fasting blood was collected via tail nicking following 14–16 h of fasting with ad libitum access to drinking water. Serum mouse insulin levels were assessed by ELISA (80-INSMR-CH01, Alpco). Mice were then killed. The pancreases were embedded in OCT. The tissue was then sectioned at 5 μm for immunohistochemistry staining analysis of DNA damage marker γ-H2A.X and β-cell marker INS.

For another data set, the system named is hESC-derived INS+ cells. Put plainly: Ki67 proliferation staining of hESC-derived INS+ cells. The class given is cell-based, human. The following applies: 1.6 µM propargite vs DMSO. The method, then:
Cells were fixed with 10% (v/v) formalin for 20 min at room temperature (RT) and blocked in a solution of Mg^2+- and Ca^2+-free PBS containing 5% horse serum and 0.3% Triton-X for 1 h at room temperature and followed by incubation with primary antibody at 4 °C overnight. The following primary antibodies and dilutions have been used in this study: goat anti-SOX17 (1:500, R&D system, AF1924), rabbit anti-FOXA2 (1:500, Upstate, 07-633), goat anti-PDX1 (1:500, R&D system, AF2419), mouse anti-NKX6.1 (1:100; BCBC, Ab2024), guinea pig anti-INS (1:1000, Dako, A0564), guinea pig anti-GLUCAGON (1:500, Linco, 4031), mouse anti-Ki67 (1:100, Life technologies, 556003), mouse anti-AMYLASE (1:100, Santa Cruz, sc-46657), rabbit anti-Active Caspase-3 (1:500, BD Bioscience, 559565), mouse anti-Troponin T (1:500, Thermo Scientific, MA5-12960), mouse anti-Actin, Cardiac (1:300, Sigma, A9357), rabbit anti-TUJ1 (1:500, Covance, MRB-435P), Chicken anti-MAP2 (1:1000, Abcam, Ab5392), mouse anti-HuC/D (1:500, Invitrogen, A-21271), mouse anti-MAP2 (1:1500, Sigma, M1406), rabbit anti-TH (1:500, Pel freeze, P40101-0), rat-anti-CTIP2 (1:500, Abcam, ab18465), goat anti-FOXA2 (1:200, R&D, 463783). Donkey anti-guinea pig, mouse, goat, rabbit or chicken secondary antibodies conjugated with Alexa-Fluor-488, Alexa-Fluor-594 or Alexa-Fluor-647 fluorophore (1:500, Life technologies) were used. […]

Where [1] appears, read: 12 mg/kg daily for 5 days, intraperitoneal, CD-1 mice.

With “2-(4-tert-butylphenoxy)-cyclohexyl prop-2-yne-1-sulfonate [propargite]”, the IC50 with GSTT1+/+ INS+ cells was 2150 nM. In the data set with mouse pancreatic β-cells (setting [1]), the blood glucose level result is given as “lightly increased”, the body weight entry is given as “without significantly affecting” and the “insulin levels in the plasma of fasted mice” value is reported as “significant reduction”. For the same substance, the “percentage of γ-H2AX+/INS+ in INS+ cells (DNA damage)” value with mouse pancreatic β-cells (12 mg/kg, mouse pancreas) is recorded as “significant increase”. Further, in the data set with hESC-derived INS+ cells, the “percentage of Ki67+/INS+ cells” value is “did not affect”.
